Experimental data reported in ChEMBL document CHEMBL1129913, “Synthesis and cytotoxicity of novel artemisinin analogs” (Bioorg Med Chem Lett, 1997).
≈ marks a conversion by molar mass, not a printed value.

Experiments:
KB = assay: Compound was tested for in vitro cytotoxicity against KB (human epidermoid carcinoma) cell line; type: functional, cell-based
P388 [1] = assay: Compound was tested for in vitro cytotoxicity against P388 (murine lymphocytic leukemia) cell line; type: functional, cell-based; conditions: Mus musculus
SK-OV-3 [2] = assay: Compound was tested for in vitro cytotoxicity against SK-OV-3 (human ovary carcinoma) cell line; type: functional, cell-based; conditions: SK-OV-3, Female gonad
Vero = assay: Compound was tested for in vitro cytotoxicity against VERO (African green monkey kidney) cell line; type: functional, cell-based; conditions: Chlorocebus sabaeus
SK-OV-3 [3] = assay: Compound was tested for in vitro cytotoxicity against SK-OV-3 (human ovary carcinoma) cell line;No activity; type: functional, cell-based, Female gonad
P388 [4] = assay: Compound was tested for in vitro cytotoxicity against P388 (murine lymphocytic leukemia) cell line;No activity; type: functional, cell-based, Mus musculus
SK-OV-3 [5] = assay: Compound was tested for in vitro cytotoxicity against SK-OV-3 (human ovary carcinoma) cell line; No activity; type: functional, cell-based, Female gonad

SMILES	IC50 (KB) [µg/mL]	IC50 (P388 [1]) [µg/mL]	IC50 (SK-OV-3 [2]) [µg/mL]	IC50 (Vero) [µg/mL]	IC50 (SK-OV-3 [3])	IC50 (P388 [4])	IC50 (SK-OV-3 [5])
CC[C@H]1O[C@@H]2O[C@@]3(C)CC[C@H]4[C@H](C)CC[C@@H]([C@H]1C)[C@@]24OO3	20 (≈ 67.5 µM)	5.5 (≈ 18.6 µM)	33 (≈ 111 µM)	30 (≈ 101 µM)			
C[C@@H]1CCC2[C@@H](C)CCO[C@@H]3OC4(C)CCC1C23OO4 (single isomer, unassigned)	22 (≈ 77.9 µM)	8 (≈ 28.3 µM)		30 (≈ 106 µM)	Not Active		
CCCC[C@H]1O[C@@H]2OC3(C)CC[C@H]4[C@H](C)CC[C@@H]([C@H]1C)[C@@]24OO3 (single isomer, unassigned)	4.5 (≈ 13.9 µM)	40 (≈ 123 µM)	40 (≈ 123 µM)	15 (≈ 46.2 µM)			
C[C@H]1[C@@H](CCCC(=O)O)O[C@@H]2OC3(C)CCC4[C@H](C)CC[C@@H]1[C@]42OO3 (single isomer, unassigned)	32 (≈ 90.3 µM)			30 (≈ 84.6 µM)	Not Active	Not Active	
CCO[C@H]1O[C@@H]2OC3(C)CCC4[C@H](C)CC[C@@H]([C@H]1C)[C@]42OO3 (single isomer, unassigned)	15 (≈ 48 µM)			28 (≈ 89.6 µM)	Not Active	Not Active	
C[C@H]1[C@@H](Cc2ccccc2)O[C@@H]2OC3(C)CCC4[C@H](C)CC[C@@H]1[C@]42OO3 (single isomer, unassigned)	13 (≈ 36.3 µM)		32 (≈ 89.3 µM)	15 (≈ 41.8 µM)		Not Active	
CCN(CC)Cc1ccc(C(=O)O[C@@H]2O[C@@H]3OC4(C)CCC5[C@H](C)CC[C@@H]([C@H]2C)[C@]53OO4)cc1 (single isomer, unassigned)	3 (≈ 6.33 µM)			15 (≈ 31.7 µM)	Not Active	Not Active	
C[C@@H]1CC[C@H]2[C@@H](C)CO[C@@H]3OC4(C)CC[C@@H]1[C@]32OO4 (single isomer, unassigned) [DEOXOARTEMISININ]	24 (≈ 89.4 µM)		40 (≈ 149 µM)	30 (≈ 112 µM)		Not Active	
C[C@@H]1CC[C@H]2[C@@H](C)C(=O)O[C@@H]3O[C@@]4(C)CC[C@@H]1[C@]32OO4 [ARTEMISININ]	16 (≈ 56.7 µM)	28 (≈ 99.2 µM)		31 (≈ 110 µM)			Not Active
